Results from patent US20230085307A1, “PYRIDAZINONE COMPOUND AND HERBICIDE” (NISSAN CHEMICAL CORPORATION, priority 2019, published 2023).

Columns and labels:
blackgrass = experiment: Test Example 5: herbicidal effect by foliage application, plastic box (Table 20, symbol J); assay type: in vivo, blackgrass (Alopecurus myosuroides); details: foliage application; for effect on blackgrass (J): 3 weeks after application
Procedure, shortened: (§1)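 Plants sown in sterilized diluvial soil and grown 14 days in a greenhouse at 25° C to 30° C, then sprayed on the foliage with the compound's emulsion diluted in water to a predetermined herbicide amount. Injury to weeds and crops scored three weeks after application on a visual rating scale.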

Japanese bulrush = experiment: Test Example 1: herbicidal activity, application before weed generation under submerged conditions (Table 16, symbol B); assay type: in vivo, Japanese bulrush (Schoenoplectus juncoides); details: 320 g/ha applied herbicide
Procedure, shortened: (§2)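 Submerged Wagner pots (alluvial soil, 4 cm water) sown with weed seeds and planted with 2.5-leaf rice seedlings; emulsifiable concentrate diluted in water applied to water surface on sowing day. Held in greenhouse at 25-30 °C; injury scored 0-5 by herbicidal rate after three weeks.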

rice flat sedge = experiment: Test Example 3: herbicidal effect by foliage application, Wagner pot (Table 18, symbol E); assay type: in vivo, rice flat sedge (Cyperus iria); details: for herbicidal effect on E (rice flat sedge), rating 0-5: 320 g/ha
Procedure, shortened: (§3)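 Plants were sown in alluvial soil held under 0.1–0.5 cm standing water and grown 14 days in a greenhouse at 25–30 °C. An emulsifiable formulation, water-diluted to the set dose, was then sprayed onto the foliage, and effects were scored three weeks later using previously defined criteria.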

Italian ryegrass [1] = experiment: Test Example 4: herbicidal effect by soil treatment (Table 19, symbol K); assay type: in vivo, Italian ryegrass (Lolium multiflorum)
Procedure, shortened: (§4)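 Seeds were sown in sterilized diluvial soil and covered with about 1.5 cm of soil. An emulsion formulation diluted with water to a predetermined herbicide amount was sprayed evenly onto the soil surface. Plants grew in a greenhouse at 25° C. to 30° C., and the effect was scored three weeks after application using criteria from an earlier test.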

redroot pigweed [2] = experiment: Test Example 5: herbicidal effect by foliage application, plastic box (Table 20, symbol N); assay type: in vivo, redroot pigweed (Amaranthus retroflexus); details: foliage application
Procedure, shortened: as §1

barnyard grass [3] = experiment: Test Example 5: herbicidal effect by foliage application, plastic box (Table 20, symbol H); assay type: in vivo, barnyard grass (Echinochloa crus-galli); details: foliage application; for effect on barnyard grass (H): 3 weeks after application
Procedure, shortened: as §1

late watergrass [4] = experiment: Test Example 2: herbicidal activity, application during weed generation under submerged conditions (Table 17, symbol A); assay type: in vivo, late watergrass (Echinochloa oryzicola); details: AAH 320 g/ha; application during weed generation, submerged conditions
Procedure, shortened: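 3-wk visual-criteria score after one water-surface dose. Emulsion formulation, water-diluted to set rate; applied at 1–2 leaf stage; alluvial soil, 4 cm standing water; seeds co-sown; greenhouse 25–30° C.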

late watergrass [5] = experiment: Test Example 1: herbicidal activity, application before weed generation under submerged conditions (Table 16, symbol A); assay type: in vivo, late watergrass (Echinochloa oryzicola); details: 320 g/ha applied herbicide
Procedure, shortened: as §2

barnyard grass [6] = experiment: Test Example 3: herbicidal effect by foliage application, Wagner pot (Table 18, symbol H); assay type: in vivo, barnyard grass (Echinochloa crus-galli); details: for herbicidal effect on H (barnyard grass), rating 0-5: 320 g/ha
Procedure, shortened: as §3

redroot pigweed [7] = experiment: Test Example 4: herbicidal effect by soil treatment (Table 19, symbol N); assay type: in vivo, redroot pigweed (Amaranthus retroflexus)
Procedure, shortened: as §4

Italian ryegrass [8] = experiment: Test Example 5: herbicidal effect by foliage application, plastic box (Table 20, symbol K); assay type: in vivo, Italian ryegrass (Lolium multiflorum); details: foliage application; for effect on Italian ryegrass (K): 3 weeks after application
Procedure, shortened: as §1

windgrass = experiment: Test Example 4: herbicidal effect by soil treatment (Table 19, symbol L); assay type: in vivo, windgrass (Apera spica-venti)
Procedure, shortened: as §4

Chinese sprangletop = experiment: Test Example 3: herbicidal effect by foliage application, Wagner pot (Table 18, symbol D); assay type: in vivo, chinese sprangletop (Leptochloa chinensis); details: for herbicidal effect on D (Chinese sprangletop), rating 0-5: 320 g/ha
Procedure, shortened: as §3

green foxtail = experiment: Test Example 5: herbicidal effect by foliage application, plastic box (Table 20, symbol G); assay type: in vivo, green foxtail (Setaria viridis); details: foliage application; for effect on green foxtail (G): 3 weeks after application
Procedure, shortened: as §1

wild oat = experiment: Test Example 5: herbicidal effect by foliage application, plastic box (Table 20, symbol I); assay type: in vivo, wild oat (Avena fatua); details: foliage application; for effect on wild oat (I): 3 weeks after application
Procedure, shortened: as §1

[9] = 320 g/ha, three weeks after application
[10] = amount of applied herbicide 320 g/ha
[11] = AAH 320 g/ha, evaluated three weeks after application
[12] = 320 g/ha, evaluated three weeks after application

CCCOc1ccc(-c2sc3ccccc3c2-c2c(O)c(C)nn(C)c2=O)cc1 [1-019]
herbicidal effect grade, J: blackgrass (blackgrass; [9]): 4 (Herbicidal rate of 70% or more and less than 90%)
Herbicidal effect on B: Japanese bulrush (grade 0-5) (Japanese bulrush): 5 (Herbicidal rate of 90% or more (almost completely withered))
herbicidal effect on E (rice flat sedge), rating 0-5 (rice flat sedge): 5 (Herbicidal rate of 90% or more (almost completely withered))
herbicidal effect rating, K: Italian ryegrass (Italian ryegrass [1]; [10]): 3 (Herbicidal rate of 40% or more and less than 70%)
herbicidal effect grade, N: redroot pigweed (redroot pigweed [2]; [9]): 5 (Herbicidal rate of 90% or more (almost completely withered))
herbicidal effect grade, H: barnyard grass (barnyard grass [3]; [9]): 5 (Herbicidal rate of 90% or more (almost completely withered))
herbicidal effect rating, A: late watergrass (late watergrass [4]): 3 (Herbicidal rate of 40% or more and less than 70%)
Herbicidal effect on A: late watergrass (grade 0-5) (late watergrass [5]): 5 (Herbicidal rate of 90% or more (almost completely withered))
herbicidal effect on H (barnyard grass), rating 0-5 (barnyard grass [6]): 5 (Herbicidal rate of 90% or more (almost completely withered))
herbicidal effect rating, N: redroot pigweed (redroot pigweed [7]; [10]): 4 (Herbicidal rate of 70% or more and less than 90%)
herbicidal effect grade, K: Italian ryegrass (Italian ryegrass [8]; [9]): 4 (Herbicidal rate of 70% or more and less than 90%)
herbicidal effect rating, L: windgrass (windgrass; [10]): 0 (Herbicidal rate of 5% or less (almost no effect))
herbicidal effect on D (Chinese sprangletop), rating 0-5 (Chinese sprangletop): 4 (Herbicidal rate of 70% or more and less than 90%)
herbicidal effect grade, G: green foxtail (green foxtail; [9]): 5 (Herbicidal rate of 90% or more (almost completely withered))
herbicidal effect grade, I: wild oat (wild oat; [9]): 3 (Herbicidal rate of 40% or more and less than 70%)

COCCOCOc1c(C)nn(C)c(=O)c1-c1c(-c2ccc(OCCC3OCCO3)cc2)sc2ccccc12 [1-224]
effect on blackgrass (J) (blackgrass; 320 g/ha): 0 (Herbicidal rate of 5% or less (almost no effect))
Herbicidal effect on B: Japanese bulrush (grade 0-5) (Japanese bulrush): 5 (Herbicidal rate of 90% or more (almost completely withered))
herbicidal effect on E (rice flat sedge), rating 0-5 (rice flat sedge): 5 (Herbicidal rate of 90% or more (almost completely withered))
K: Italian ryegrass, herbicidal effect rating (Italian ryegrass [1]; AAH 320 g/ha): 0 (Herbicidal rate of 5% or less (almost no effect))
effect on barnyard grass (H) (barnyard grass [3]; 320 g/ha): 5 (Herbicidal rate of 90% or more (almost completely withered))
herbicidal effect rating, A: late watergrass (late watergrass [4]): 3 (Herbicidal rate of 40% or more and less than 70%)
Herbicidal effect on A: late watergrass (grade 0-5) (late watergrass [5]): 5 (Herbicidal rate of 90% or more (almost completely withered))
herbicidal effect on H (barnyard grass), rating 0-5 (barnyard grass [6]): 5 (Herbicidal rate of 90% or more (almost completely withered))
N: redroot pigweed, herbicidal effect rating (redroot pigweed [7]; AAH 320 g/ha): 4 (Herbicidal rate of 70% or more and less than 90%)
effect on Italian ryegrass (K) (Italian ryegrass [8]; 320 g/ha): 0 (Herbicidal rate of 5% or less (almost no effect))
L: windgrass, herbicidal effect rating (windgrass; AAH 320 g/ha): 0 (Herbicidal rate of 5% or less (almost no effect))
herbicidal effect on D (Chinese sprangletop), rating 0-5 (Chinese sprangletop): 3 (Herbicidal rate of 40% or more and less than 70%)
effect on green foxtail (G) (green foxtail; 320 g/ha): 5 (Herbicidal rate of 90% or more (almost completely withered))
effect on wild oat (I) (wild oat; 320 g/ha): 0 (Herbicidal rate of 5% or less (almost no effect))

Cc1nn(C)c(=O)c(-c2c(-c3ccc(OC(F)F)cc3)sc3ccc(F)cc23)c1OC(=O)C1CCCC1 [2-280]
J: blackgrass, herbicidal effect (criteria 0-5) (blackgrass; [11]): 5 (Herbicidal rate of 90% or more (almost completely withered))
Herbicidal effect on B: Japanese bulrush (grade 0-5) (Japanese bulrush): 3 (Herbicidal rate of 40% or more and less than 70%)
herbicidal effect on E: rice flat sedge (rice flat sedge; [10]): 4 (Herbicidal rate of 70% or more and less than 90%)
herbicidal effect on K: Italian ryegrass (Italian ryegrass [1]; [10]): 5 (Herbicidal rate of 90% or more (almost completely withered))
N: redroot pigweed, herbicidal effect (criteria 0-5) (redroot pigweed [2]; [11]): 5 (Herbicidal rate of 90% or more (almost completely withered))
H: barnyard grass, herbicidal effect (criteria 0-5) (barnyard grass [3]; [11]): 5 (Herbicidal rate of 90% or more (almost completely withered))
herbicidal effect rating, A: late watergrass (late watergrass [4]): 4 (Herbicidal rate of 70% or more and less than 90%)
Herbicidal effect on A: late watergrass (grade 0-5) (late watergrass [5]): 5 (Herbicidal rate of 90% or more (almost completely withered))
herbicidal effect on H: barnyard grass (barnyard grass [6]; [10]): 5 (Herbicidal rate of 90% or more (almost completely withered))
herbicidal effect on N: redroot pigweed (redroot pigweed [7]; [10]): 5 (Herbicidal rate of 90% or more (almost completely withered))
K: Italian ryegrass, herbicidal effect (criteria 0-5) (Italian ryegrass [8]; [11]): 5 (Herbicidal rate of 90% or more (almost completely withered))
herbicidal effect on L: windgrass (windgrass; [10]): 0 (Herbicidal rate of 5% or less (almost no effect))
herbicidal effect on D: Chinese sprangletop (Chinese sprangletop; [10]): 3 (Herbicidal rate of 40% or more and less than 70%)
G: green foxtail, herbicidal effect (criteria 0-5) (green foxtail; [11]): 4 (Herbicidal rate of 70% or more and less than 90%)
I: wild oat, herbicidal effect (criteria 0-5) (wild oat; [11]): 3 (Herbicidal rate of 40% or more and less than 70%)

Cc1nn(C)c(=O)c(-c2c(-c3ccc(Cl)cc3)sc3ccc(F)cc23)c1O [Compound No. 2-010, 4-(2-(4-chlorophenyl)-5-fluorobenzo[b]thiophen-3-yl)-5-hydroxy-2,6-dimethylpyridazin-3(2H)-one]
effect on blackgrass (J) (blackgrass; 320 g/ha): 3 (Herbicidal rate of 40% or more and less than 70%)
Herbicidal effect on B: Japanese bulrush (grade 0-5) (Japanese bulrush): 3 (Herbicidal rate of 40% or more and less than 70%)
herbicidal effect on E (rice flat sedge), rating 0-5 (rice flat sedge): 5 (Herbicidal rate of 90% or more (almost completely withered))
herbicidal effect rating, K: Italian ryegrass (Italian ryegrass [1]; 320 g/ha): 5 (Herbicidal rate of 90% or more (almost completely withered))
effect on barnyard grass (H) (barnyard grass [3]; 320 g/ha): 5 (Herbicidal rate of 90% or more (almost completely withered))
Herbicidal effect on A: late watergrass (grade 0-5) (late watergrass [5]): 3 (Herbicidal rate of 40% or more and less than 70%)
herbicidal effect on H (barnyard grass), rating 0-5 (barnyard grass [6]): 5 (Herbicidal rate of 90% or more (almost completely withered))
herbicidal effect rating, N: redroot pigweed (redroot pigweed [7]; 320 g/ha): 5 (Herbicidal rate of 90% or more (almost completely withered))
effect on Italian ryegrass (K) (Italian ryegrass [8]; 320 g/ha): 5 (Herbicidal rate of 90% or more (almost completely withered))
herbicidal effect rating, L: windgrass (windgrass; 320 g/ha): 0 (Herbicidal rate of 5% or less (almost no effect))
herbicidal effect on D (Chinese sprangletop), rating 0-5 (Chinese sprangletop): 4 (Herbicidal rate of 70% or more and less than 90%)
effect on green foxtail (G) (green foxtail; 320 g/ha): 5 (Herbicidal rate of 90% or more (almost completely withered))
effect on wild oat (I) (wild oat; 320 g/ha): 4 (Herbicidal rate of 70% or more and less than 90%)

COc1cc(F)ccc1-c1sc2ccc(Cl)cc2c1-c1c(O)c(C)nn(C)c1=O [Compound No. 2-095, 4-(5-chloro-2-(4-fluoro-2-methoxyphenyl)benzo[b]thiophen-3-yl)-5-hydroxy-2,6-dimethylpyridazin-3(2H)-one]
herbicidal effect on J: blackgrass (blackgrass; [12]): 4 (Herbicidal rate of 70% or more and less than 90%)
Herbicidal effect on B: Japanese bulrush (grade 0-5) (Japanese bulrush): 0 (Herbicidal rate of 5% or less (almost no effect))
herbicidal effect on E (rice flat sedge), rating 0-5 (rice flat sedge): 5 (Herbicidal rate of 90% or more (almost completely withered))
herbicidal effect rating, K: Italian ryegrass (Italian ryegrass [1]; 320 g/ha): 0 (Herbicidal rate of 5% or less (almost no effect))
herbicidal effect on N: redroot pigweed (redroot pigweed [2]; [12]): 5 (Herbicidal rate of 90% or more (almost completely withered))
herbicidal effect on H: barnyard grass (barnyard grass [3]; [12]): 4 (Herbicidal rate of 70% or more and less than 90%)
Herbicidal effect on A: late watergrass (grade 0-5) (late watergrass [5]): 2 (Herbicidal rate of 20% or more and less than 40%)
herbicidal effect on H (barnyard grass), rating 0-5 (barnyard grass [6]): 5 (Herbicidal rate of 90% or more (almost completely withered))
herbicidal effect rating, N: redroot pigweed (redroot pigweed [7]; 320 g/ha): 4 (Herbicidal rate of 70% or more and less than 90%)
herbicidal effect on K: Italian ryegrass (Italian ryegrass [8]; [12]): 3 (Herbicidal rate of 40% or more and less than 70%)
herbicidal effect rating, L: windgrass (windgrass; 320 g/ha): 3 (Herbicidal rate of 40% or more and less than 70%)
herbicidal effect on D (Chinese sprangletop), rating 0-5 (Chinese sprangletop): 4 (Herbicidal rate of 70% or more and less than 90%)
herbicidal effect on G: green foxtail (green foxtail; [12]): 5 (Herbicidal rate of 90% or more (almost completely withered))
herbicidal effect on I: wild oat (wild oat; [12]): 4 (Herbicidal rate of 70% or more and less than 90%)
